Earlier results on one compound are cited in US20040054001A1, “Fumaric acid derivatives as nf-kappab inhibitors” (priority 2001, published 2004).

The series relates to Ehrlich ascites tumour. The conditions noted are these: mice; cited from earlier work.

With `O=C(O)/C=C/C(=O)O` [fumaric acid], the “growth of the Ehrlich ascites tumour” value is listed as “inhibits”.
